# Measured values from patent publication US20040019018A1, “Rigid pyrrolidone modulators of pkc” (priority 2003, published 2004).
# Columns and labels:
# PKC catalytic subunit = experiment: Translocation of PKC catalytic subunit to the membrane fraction in human fibroblasts (Western blot); format: cell-based; conditions: 15 min treatment, preliminary results
# Protocol: A growing list of evidence implicated that protein kinase C (PKC) activation can increase the rate of the non-amyloidogenic, i.e. α-secretase processing in vitro.
# Human fibroblasts were grown to confluence in 100 mm tissue culture dishes. On the day of the experiment, cells were rinsed twice with serum-free Dulbecco's modified Eagle's medium (DMEM) and incubated in the same medium for 2 hours. Cells were treated with the drugs above, or DMSO vehicle as control, for 15 min. The cells were then rinsed twice with ice-cold phosphate buffered saline (PBS), scraped in PBS, and collected by centrifugation. The pellets were suspended in homogenization buffer containing: 20 mM Tris-HCl, pH 7.5, 2 mM EDTA, 2 mM EGTA, 5 mM DTT, 0.32 M sucrose, 2 mM PMSF, […] aprotinin, and 20 µg/ml leupeptin. Homogenates were immersed in liquid nitrogen thawed, and centrifuged at 12,000 g for 20 min, and supernatants were used as the cytosolic fraction (C). The pellets were homogenized in the same buffer containing 1.0% Triton X-100, incubated on ice for 45 min, and centrifuged at 12,000 g for 30 min and the supernatants were used as the membrane fractions (M). After protein determination, equal amounts of proteins (approx. […]) were mixed with electrophoresis buffer, boiled for 5 min, and separated on 8% SDS-PAGE, and electrophoretically transferred to PVDF membranes. […]
# soluble APPα (sAPPα) = experiment: Secretion of soluble APPα from human fibroblasts (Example 15); format: cell-based; conditions: 10-20 μM, 2 hours
# Protocol: Human fibroblasts from Alzheimer's patients (AD, cell line AG06848) or age-matched controls (AC, cell line AG07141) were grown to near confluence in DMEM containing 10% fetal bovine serum. On the day of the experiments, cells were rinsed twice with DMEM with no serum and incubated with the same […] for 2 hours at 37° C., 5% CO2. Cells were incubated for 2 additional hours with different concentrations of the drugs or equal volume of DMSO vehicle as control. The medium was collected and centrifuged at 1000 rpm to remove cell debris. Proteins were precipitated by addition of equal volume of 20% ice-cold tricholoroacetic acid (TCA) and incubation on ice for 60 minutes. The protein pellets were washed with ice-cold acetone and centrifuged for 30 minutes at 20,000 g for 30 minutes and dried overnight. Pellets were dissolved in electrophoresis buffer and proteins corresponding to the same concentration of protein were separated by SDS-PAGE and transferred to PVDF membranes according to the manufacturer's instructions. After electrophoresis, the membranes were blocked with Blotto and incubated overnight with a monoclonal antibody 6E10 (Synetek) that recognizes the APPα. After incubation with the secondary antibody, alkaline phosphatase anti-mouse IgG (Jackson's Laboratories), the membranes were developed using an alkaline phosphatase kit (BioRad) as per the manufacturer's instructions.
compound,measurement,setting,value
"CCCCCCCCC#Cc1ccc2c(c1)C(C)(C(C)C)C1C(=O)NC(CO)C21 [Compound 1, (3S, 8R, 9S, 10S)-6-(dec-1′-ynyl)-3-hydroxymethyl-8-isopropyl-8-methyl-3,3a,8,8a-tetrahydro-2H-2-aza-cyclopenta[a]inden-1-one]",translocation of PKC catalytic subunit from the cytosolic to the membrane fractions (activation),PKC catalytic subunit,able to cause the translocation
same,secretion of soluble APPα (sAPPα),soluble APPα (sAPPα),increased the secretion of soluble APPα (sAPPα) significantly
